In patent US20250152660A1, “SCO-spondin-derived polypeptides for treating biological barriers dysfunction” (AXOLTIS PHARMA, priority 2021, published 2025):
Several values for one entry are separate records, joined by “and”; a condition that tells them apart may be missing. Equal values may be shown once. Bridges are numbered along the chain shown (N, C = ends). Where no end group is shown, it is not given here.

Experiments:
[1] = test system: mouse brain endothelial bEnd.3 cells; test: Permeability of mouse brain endothelial cell monolayer to FITC-40 kDa Dextran; type: cell-based; settings: for Permeability to FITC-40 kDa Dextran (endothelial permeability coefficient Pe): individual replicates N1-N3
Description: To determine the effect of NX218 on the permeability of mouse brain endothelial cells to a 40-kDa FITC Dextran, cells were grown on a semi-permeable membrane inserted in culture wells in presence or absence of NX218. Then, the FITC Dextran was placed on the apical chamber (containing the cells) and its levels measured (based on its fluorescence) one hour later in the basolateral chamber.
Mouse brain endothelial cells (bEnd.3, American Type Culture Collection) were cultured in DMEM supplemented with 10% FBS and 2 mM sodium pyruvate in a 5% CO2 incubator at 37° C.
bEnd.3 cells were grown to confluence on 1% fibronectin-coated Corning HTS 24-well Transwell polyester inserts with a pore size of 0.4 μm (5×10^4 cells per well containing 200 μL and 800 μL of culture medium in the apical and basolateral compartments respectively) and treated with vehicle or NX218 (1, 10 and 100 μM) for 1, 2 or 3 days. Two hundred (200) μL of 1 mg/mL of a 40-kDa FITC Dextran in DMEM supplemented with 10% FBS and 2 mM sodium pyruvate were added to the apical chamber of each well, and the cells were incubated at 37° C. Sampling aliquots were taken from the basolateral chamber and replaced with fresh medium every 15 min for 1 h and then transferred to 96-well plates. FITC-Dextran fluorescence was determined using a spectrofluorometer at an excitation wavelength of 485 nm and an emission wavelength of 520 nm. Relative fluorescence units were converted to values of nanograms per milliliter, using FITC-Dextran standard curves, and was corrected for background fluorescence and serial dilutions over the course of the experiment. The data are expressed as the endothelial permeability coefficient (Pe) in cm/min.

[2] = test system: Occludin in mouse brain endothelial bEnd.3 cells; test: Occludin western blot in mouse brain endothelial cell cultures; type: cell-based; settings: for Expression of Occludin, Average: average of N1-N8
Description: To understand the effect of NX218 on the TEER and permeability of mouse brain endothelial cells, the levels of the tight junction protein Occludin were assessed using Western Blot.
Mouse brain endothelial cells (bEnd.3, American Type Culture Collection) were cultured in DMEM supplemented with 10% fetal FBS and 2 mM sodium pyruvate in a 5% CO2 incubator at 37° C.
bEnd.3 cells were seeded on 12-well plates (2.5×10^5 cells per well in 1,000 μL) for western-blot analyses. Two days after seeding, cells were treated with vehicle or NX218 (1, 10 and 100 μM) for 24 hours. Proteins were isolated from the cell layers with lysis buffer (62.5 mM Tris, 2% SDS, 10 mM dithiothreitol, 10 μL protease inhibitor cocktail/100 mL (Sigma-Aldrich)), centrifugated at 12,000 r.p.m for 20 min at 4° C., and supernatants were used for analysis of tight junction proteins. Protein concentrations were determined with the Pierce BCA protein assay (Thermo Scientific). Ten (10) μL of samples and standards (working range=125-2000 μg/mL) were loaded in duplicate into a 96-well plate and 200 μL of working reagent (50 parts BCA reagent A with 1 part BCA reagent B) were added to each well, mixed on a shaker and incubated at 37° C. for 30 min. The plate was cooled to RT and the absorbance read at 562 nm. Protein concentrations were calculated from a standard curve. Ten (10) μg total protein were loaded per well for separation by SDS-polyacrylamide gel electrophoresis (12% acrylamide). Gels were transferred onto methanol-activated polyvinylidene difluoride membranes (Merck Millipore) via semi-dry transfer. Transferred membranes were reactivated with methanol and blocked under slight agitation in tris-buffered saline (TBS)-Tween-20 containing 3% weight/volume Marvel non-fat dry milk for 1 h at RT. Blocked membranes were washed three times with TBS-Tween-20 and treated with primary rabbit polyclonal antibodies against Occludin (Novus Biotech, ref. NBP1-87402, 65 kDa, 1/1000 dilution) overnight at 4° C. Membranes were washed three times for 5 min in TBS-Tween-20 and incubated with horseradish peroxidase-conjugated goat anti-rabbit secondary antibody (A6154, Sigma-Aldrich) diluted 1/2,000 in TBS-Tween-20 for 2 h at RT. Secondary antibody was removed and membranes washed four times for 5 min in TBS-Tween-20. Blots were developed by enhanced chemiluminescence (ECL). A 1:1 mix of WesternBright ECL Luminol/enhancer solution and Peroxide Chemiluminescent solution (Advansta) was incubated at RT for 2 min before being directly added onto washed blots. The LiCor C-Digit Blot Scanner was used to detect chemiluminescence over a 12-minute exposure time.

## W-S-G-W-S-S-C-S-R-S-C-G (WSGWSSCSRSCG; disulfide 7-11 (inferred)) [NX218]
[1]; NX218 1 μM, 24 hours, average of N1-N3, control 0.066
  Permeability to FITC-40 kDa Dextran (Pe), Average: 1064 ×10⁻⁶ cm/s
[1]; NX218 1 μM, 24 hours
  Permeability to FITC-40 kDa Dextran (endothelial permeability coefficient Pe): 1020 ×10⁻⁶ cm/s and 971 ×10⁻⁶ cm/s and 1200 ×10⁻⁶ cm/s
[1]; NX218 1 μM, 48 hours, average of N1-N3, control 0.05616
  Permeability to FITC-40 kDa Dextran (Pe), Average: 896.3 ×10⁻⁶ cm/s
[1]; NX218 1 μM, 48 hours
  Permeability to FITC-40 kDa Dextran (endothelial permeability coefficient Pe): 963 ×10⁻⁶ cm/s and 781.5 ×10⁻⁶ cm/s and 944.3 ×10⁻⁶ cm/s
[1]; NX218 1 μM, 72 hours, average of N1-N3, control 0.0532667
  Permeability to FITC-40 kDa Dextran (Pe), Average: 906.3 ×10⁻⁶ cm/s
[1]; NX218 1 μM, 72 hours
  Permeability to FITC-40 kDa Dextran (endothelial permeability coefficient Pe): 942 ×10⁻⁶ cm/s and 942.2 ×10⁻⁶ cm/s and 834.8 ×10⁻⁶ cm/s
[1]; NX218 10 μM, 24 hours, average of N1-N3, control 0.066
  Permeability to FITC-40 kDa Dextran (Pe), Average: 977.3 ×10⁻⁶ cm/s
[1]; NX218 10 μM, 24 hours
  Permeability to FITC-40 kDa Dextran (endothelial permeability coefficient Pe): 892 ×10⁻⁶ cm/s and 1030 ×10⁻⁶ cm/s and 1010 ×10⁻⁶ cm/s
[1]; NX218 10 μM, 48 hours, average of N1-N3, control 0.05616
  Permeability to FITC-40 kDa Dextran (Pe), Average: 841.3 ×10⁻⁶ cm/s
[1]; NX218 10 μM, 48 hours
  Permeability to FITC-40 kDa Dextran (endothelial permeability coefficient Pe): 909 ×10⁻⁶ cm/s and 760 ×10⁻⁶ cm/s and 855 ×10⁻⁶ cm/s
[1]; NX218 10 μM, 72 hours, average of N1-N3, control 0.0532667
  Permeability to FITC-40 kDa Dextran (Pe), Average: 747.7 ×10⁻⁶ cm/s
[1]; NX218 10 μM, 72 hours
  Permeability to FITC-40 kDa Dextran (endothelial permeability coefficient Pe): 748.2 ×10⁻⁶ cm/s and 783 ×10⁻⁶ cm/s and 712 ×10⁻⁶ cm/s
[1]; NX218 100 μM, 24 hours, average of N1-N3, control 0.066
  Permeability to FITC-40 kDa Dextran (Pe), Average: 942 ×10⁻⁶ cm/s
[1]; NX218 100 μM, 24 hours
  Permeability to FITC-40 kDa Dextran (endothelial permeability coefficient Pe): 907 ×10⁻⁶ cm/s and 1012 ×10⁻⁶ cm/s and 906.3 ×10⁻⁶ cm/s
[1]; NX218 100 μM, 48 hours, average of N1-N3, control 0.05616
  Permeability to FITC-40 kDa Dextran (Pe), Average: 702 ×10⁻⁶ cm/s
[1]; NX218 100 μM, 48 hours
  Permeability to FITC-40 kDa Dextran (endothelial permeability coefficient Pe): 627 ×10⁻⁶ cm/s and 725 ×10⁻⁶ cm/s and 753 ×10⁻⁶ cm/s
[1]; NX218 100 μM, 72 hours, average of N1-N3, control 0.0532667
  Permeability to FITC-40 kDa Dextran (Pe), Average: 782 ×10⁻⁶ cm/s
[1]; NX218 100 μM, 72 hours
  Permeability to FITC-40 kDa Dextran (endothelial permeability coefficient Pe): 798 ×10⁻⁶ cm/s and 758.7 ×10⁻⁶ cm/s and 787.7 ×10⁻⁶ cm/s
[2]; 1 μM, 24 h, bEnd.3, p=0.0309
  Increase of occludin protein levels vs control: +26.3%
[2]; 10 μM, 24 h, bEnd.3, p=0.0053
  Increase of occludin protein levels vs control: +41.1%
[2]; 100 μM, 24 h, bEnd.3, p=0.0112
  Increase of occludin protein levels vs control: +36.8%
[2]; 1, 10 and 100 μM, 24 h, compared with control
  Occludin protein levels, result in words: significant increase of occludin protein levels
[2]; FIG. 6, 24-hour treatment
  Expression of Occludin: increases the expression of Occludin
[2]; NX218 1 μM, 24 hours, bEnd.3, western blot
  Expression of Occludin, Average: 126.30 % of Control
[2]; NX218 1 μM, 24 hours, bEnd.3, western blot, individual replicates N1-N8
  Expression of Occludin: 124.20 % of Control and 120.60 % of Control and 92.30 % of Control and 152.80 % of Control and 146.80 % of Control and 135.50 % of Control and 125.00 % of Control and 113.00 % of Control
[2]; NX218 10 μM, 24 hours, bEnd.3, western blot
  Expression of Occludin, Average: 141.10 % of Control
[2]; NX218 10 μM, 24 hours, bEnd.3, western blot, individual replicates N1-N8
  Expression of Occludin: 124.20 % of Control and 123.30 % of Control and 114.20 % of Control and 93.50 % of Control and 187.30 % of Control and 166.20 % of Control and 176.60 % of Control and 143.50 % of Control
[2]; NX218 100 μM, 24 hours, bEnd.3, western blot
  Expression of Occludin, Average: 136.80 % of Control
[2]; NX218 100 μM, 24 hours, bEnd.3, western blot, individual replicates N1-N8
  Expression of Occludin: 112.10 % of Control and 103.80 % of Control and 111.20 % of Control and 188.40 % of Control and 123.40 % of Control and 158.40 % of Control and 122.20 % of Control and 174.50 % of Control
